The source of these data is patent US4740233A, “Substituted 1,2,4-triazolo[1,5-a]-pyrimidine-2-sulfonamides and compositions and methods of controlling undesired vegetation and suppressing the nitrification of ammonium nitrogen in soil” (The Dow Chemical Company, priority 1986, dated 1988).

In one test the test system is yellow foxtail. As to the kind of experiment: Postemergent control of plant species. Type of test: in vivo, Setaria lutescens. To be noted: Setaria, post-emergence, 336 h, read-out: percent postemergent control. The gist of the method:
(§1)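 Compounds were taken up in acetone at twice the final concentration, then diluted with an equal volume of water containing 0.1% surfactant and sprayed onto greenhouse-grown plants at the 2-4 leaf stage. Plants were kept about two weeks under growth conditions; control is growth reduction relative to untreated plants of the same species.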

The next test has as its system pigweed. Put plainly: Postemergent control of plant species. The test is classed as in vivo, Amaranthus spp. The note with it: Amaranthus retroflexus, post-emergence, 336 h, read-out: percent postemergent control. The gist of the method: as §1
Another test concerns annual morning glory. Put plainly: Postemergent control of plant species. The test is classed as in vivo, Ipomoea spp. The note with it: Ipomoea, post-emergence, 336 h, read-out: percent postemergent control. In short, it runs like this: as §1
The next test concerns johnson grass. Put plainly: Postemergent control of plant species. The test is classed as in vivo, Sorghum halepense. To be noted: Sorghum halepense, post-emergence, 336 h, read-out: percent postemergent control. In short, it runs like this:
as §1

A further test has as its system rape. Put plainly: Postemergent control of plant species. Type of test: in vivo, Brassica napus. The note with it: Brassica napus, post-emergence, 336 h, read-out: percent postemergent control. In short, it runs like this:
as §1

A further test has as its system velvetleaf. Put plainly: Postemergent control of plant species. Type of test: in vivo, Abutilon theophrasti. The note with it: Abutilon theophrasti, post-emergence, 336 h, read-out: percent postemergent control. In short, it runs like this: as §1
In a further test the test system is cocklebur. As to the kind of experiment: Postemergent control of plant species. The test is classed as in vivo, Xanthium spp. To be noted: Xanthium strumarium, post-emergence, 336 h, read-out: percent postemergent control. In short, it runs like this: as §1
For a further test, the system named is jimsonweed. Put plainly: Postemergent control of plant species. The test is classed as in vivo, Datura stramonium. The note with it: Datura stramonium, post-emergence, 336 h, read-out: percent postemergent control. In short, it runs like this: as §1
A further test concerns soybean. As to the kind of experiment: Postemergent control of plant species. To be noted: Glycine max, post-emergence, 336 h, read-out: percent postemergent control. Type of test: in vivo, Glycine max. In short, it runs like this:
as §1

A further test concerns yellow nutsedge. Put plainly: Postemergent control of plant species. The test is classed as in vivo, Cyperus esculentus. The note with it: Cyperus, post-emergence, 336 h, read-out: percent postemergent control. The gist of the method: as §1
The test system of another test is crabgrass. Put plainly: Postemergent control of plant species. Type of test: in vivo, Digitaria spp. The note with it: Digitaria sanguinalis, post-emergence, 336 h, read-out: percent postemergent control. The gist of the method:
as §1

Test [1] has as its system nitrification of ammonium nitrogen. Put plainly: Suppression of nitrification of ammonium nitrogen in soil. To be noted: 27° C. The gist of the method: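 Value is % NH4-N remaining after a two-week, 27° C incubation of treated soil held at 1/3 bar tension moisture. Nitrate was measured with an ion-selective electrode after extraction with ammonium sulfate solution and 10 min shaking.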

The next test relates to wheat. As to the kind of experiment: Postemergent control of plant species. The test is classed as in vivo, Triticum aestivum. To be noted: Triticum aestivum, post-emergence, 336 h, read-out: percent postemergent control. In short, it runs like this:
as §1

A further test has as its system corn. Put plainly: Postemergent control of plant species. The test is classed as in vivo, Zea mays. The note with it: Zea mays, post-emergence, 336 h, read-out: percent postemergent control. In short, it runs like this: as §1
For another test, the system named is sugar beet. Put plainly: Postemergent control of plant species. Type of test: in vivo, Beta saccharifera. The note with it: Beta vulgaris, post-emergence, 336 h, read-out: percent postemergent control. In short, it runs like this:
as §1

For the next test, the system named is rice. As to the kind of experiment: Postemergent control of plant species. The test is classed as in vivo, Oryza sativa. To be noted: Oryza sativa, post-emergence, 336 h, read-out: percent postemergent control. In short, it runs like this: as §1
The test system of another test is sorghum. As to the kind of experiment: Postemergent control of plant species. Type of test: in vivo, Sorghum vulgare. To be noted: Sorghum, post-emergence, 336 h, read-out: percent postemergent control. The gist of the method:
as §1

The next test has as its system cotton. Put plainly: Postemergent control of plant species. Type of test: in vivo, Gossypium spp. To be noted: Gossypium hirsutum, post-emergence, 336 h, read-out: percent postemergent control. In short, it runs like this:
as §1

The test system of a further test is barnyardgrass. As to the kind of experiment: Postemergent control of plant species. To be noted: Echinochloa crus-galli, post-emergence, 336 h, read-out: percent postemergent control. Type of test: in vivo, Echinochloa crusgalli. In short, it runs like this:
as §1

The subject of another test is wild oats. Put plainly: Postemergent control of plant species. The test is classed as in vivo, Avena fatua. To be noted: Avena fatua, post-emergence, 336 h, read-out: percent postemergent control. The gist of the method: as §1

Take `O=S(=O)(Nc1ccccc1C(F)(F)F)c1nc2ncccn2n1` [Compound 136]: the pest or weed control at 500 ppm was 0% in the test with yellow foxtail; 90% in the test on pigweed; 40% in the test on annual morning glory; 0% with johnson grass; 70% with velvetleaf; 98% in the test with cocklebur. The pest or weed control at 500 ppm in the test on jimsonweed was 30%; in the test on yellow nutsedge it was 0%; with crabgrass, 0%; in the test on barnyardgrass, 0%; with wild oats, 0%. Besides, the plant injury at 500 ppm was determined as 80% in the test on rape; 30% in the test on soybean; 0% in the test on wheat; 0% in the test with corn; 80% in the test on sugar beet; 0% in the test on rice. Further, the figures for the plant injury at 500 ppm in the test with sorghum and in the test with cotton were 0% and 30%, respectively. The “% NH4-N Remaining After 2 Weeks Incubation” value in test [1] (0.01 ppm) was 0%; in [1] (0.1 ppm), 10%; in test [1] (1 ppm), 67%; in test [1] (10 ppm) it was 98%.

Consider `CCOc1cnc2nc(S(=O)(=O)Nc3ccccc3C(F)(F)F)nn2c1` [Compound 201], for which the pest or weed control at 500 ppm was 0% in the test on yellow foxtail; 90% with pigweed; 0% in the test with annual morning glory; 0% in the test with johnson grass; 60% in the test with velvetleaf; 80% with cocklebur. Moreover, the pest or weed control at 500 ppm in the test on jimsonweed was determined as 70%; with yellow nutsedge, 0%; with crabgrass, 0%; in the test with barnyardgrass, 0%; in the test with wild oats, 0%. Further, the plant injury at 500 ppm in the test on rape was determined as 20%; with soybean it was 0%; in the test on wheat it was 0%; in the test with corn, 0%; in the test with sugar beet, 50%; with rice, 0%. Moreover, the plant injury at 500 ppm in the test with sorghum and in the test on cotton was 0% each time. Moreover, the “% NH4-N Remaining After 2 Weeks Incubation” value in test [1] (0.06 ppm) worked out at 0%; in [1] (0.25 ppm) it was 11%; in test [1] (1 ppm) it was 56%; in [1] (4 ppm), 67%.

For `Cc1cc(C)n2nc(S(=O)(=O)Nc3c(C)nn(C)c3C(F)(F)F)nc2n1` [Compound 247], the pest or weed control at 500 ppm in the test on yellow foxtail amounted to 0%; in the test on pigweed, 70%; in the test with annual morning glory, 0%; with johnson grass it was 0%; with velvetleaf it was 40%; with cocklebur it was 20%. In addition, the pest or weed control at 500 ppm turned out to be 20% with jimsonweed; 0% with yellow nutsedge; 0% in the test on crabgrass; 0% in the test with barnyardgrass; 0% in the test on wild oats. In addition, the plant injury at 500 ppm in the test with rape was 70%; in the test on soybean, 70%; in the test with wheat, 0%; in the test with corn, 0%; in the test on sugar beet, 70%; with rice, 0%. The plant injury at 500 ppm in the test on sorghum and with cotton was 0% in each case. The “% NH4-N Remaining After 2 Weeks Incubation” value was 58% in [1] (0.06 ppm), 47% in [1] (0.25 ppm), 58% in test [1] (1 ppm) and 82% in [1] (4 ppm).
